Results from ChEMBL document CHEMBL3758164, “Identification of new SUMO activating enzyme 1 inhibitors using virtual screening and scaffold hopping” (Bioorg Med Chem Lett, 2016).
pIC50: −log10 of the molar value.

Columns and labels:
[1] = biological target: T1, SUMO-activating enzyme subunit 1 (Homo sapiens) (UniProt Q9UBE0); test: Inhibition of recombinant GST-fused SUMO E1 (unknown origin) using RanGAP1 as substrate at 20 uM after 2 hrs by immunoblot analysis; conditions: values are per cent of control
T1 sequence (whole entry): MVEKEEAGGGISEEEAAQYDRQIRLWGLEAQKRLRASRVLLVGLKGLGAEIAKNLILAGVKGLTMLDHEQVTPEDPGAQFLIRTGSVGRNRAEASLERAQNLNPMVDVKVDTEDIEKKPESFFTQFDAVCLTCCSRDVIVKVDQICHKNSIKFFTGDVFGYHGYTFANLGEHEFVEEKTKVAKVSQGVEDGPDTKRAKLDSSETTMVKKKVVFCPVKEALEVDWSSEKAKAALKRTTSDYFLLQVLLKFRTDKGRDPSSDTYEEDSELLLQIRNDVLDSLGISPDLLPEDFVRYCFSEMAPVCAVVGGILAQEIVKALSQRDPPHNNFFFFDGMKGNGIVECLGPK

[2] = biological target: T1, SUMO-activating enzyme subunit 1 (Homo sapiens); test: Inhibition of recombinant GST-fused SUMO E1 (unknown origin) using RanGAP1 as substrate at 100 uM after 2 hrs by immunoblot analysis; conditions: values are per cent of control
[3] = biological target: T2, SUMO-activating enzyme subunit 1 (Homo sapiens, UniProt Q9UBE0); test: (§1) Inhibition of recombinant GST-fused SUMO E1 (unknown origin) using RanGAP1 as substrate after 2 hrs by immunoblot analysis
T2 sequence (Q9UBE0 whole entry): T1 sequence (whole entry)

[4] = biological target: T1, SUMO-activating enzyme subunit 1 (Homo sapiens); test: as §1

| Structure (SMILES) | residual activity [1] | residual activity [2] | pIC50 [3] | inhibition [4] |
| --- | --- | --- | --- | --- |
| COc1ccccc1NC(=O)Nc1cc(C(C)(C)C)nn1C | 102% | 95.2% | – | – |
| COc1ccccc1NC(=O)Nc1nc(-c2ccc(OC)c(OC)c2)cs1 | 88.1% | 80% | – | – |
| O=C(Nc1cccc(Cl)c1)Nc1nc2c(ccc3ccccc32)s1 | 69.3% | 0.02% | – | – |
| CCOC(=O)c1sc(NC(=O)Nc2ccc(Cl)c(Cl)c2)nc1C | 53.8% | 0.7% | – | – |
| COc1ccc(NC(=O)Nc2nc3cc(C)c(C)cc3s2)cc1OC | 94.6% | 76.6% | – | – |
| COc1cc(NC(=O)Nc2nc3cc(C)c(C)cc3s2)cc(OC)c1OC | 94.8% | 96% | – | – |
| COc1cccc(NC(=O)Nc2nc(C)c(C(C)=O)s2)c1 | 96.6% | 91.9% | – | – |
| COc1cc(NC(=O)Nc2nc(-c3nc4ccccc4s3)cs2)cc(OC)c1OC | 37.6% | 3.96% | 4.48 | Dose-dependent effect |
| Cc1ccc(-c2nc(NC(=O)Nc3cccc(Cl)c3)sc2C)cc1 | 88.5% | 45.6% | – | – |
| COc1ccc(NC(=O)Nc2nc(C)c(C(C)=O)s2)cc1 | 105% | 93.3% | – | – |
| COc1cccc(NC(=O)Nc2cc(C)nn2C2CCCC2)c1 | 100% | 101% | – | – |
| Cc1ccc(S(=O)(=O)NC(=O)Nc2nc(-c3ccc(C)c(Cl)c3)c(C)s2)cc1 | 79.3% | 0.68% | – | – |
| COc1ccc(NC(=O)Nc2nc(-c3ccc(C)c(Cl)c3)c(C)s2)cc1OC1CCCC1 | 39.8% | 13% | 4.03 | Dose-dependent effect |
| COc1ccc(NC(=O)Nc2ccc(Oc3ncnc4cc(Cl)ccc34)nc2)cc1OC1CCCC1 | – | – | 4.87 | – |
| Cc1ccc(-c2nc(NC(=O)Nc3ccc(F)cc3)sc2C)cc1Cl | 93.9% | 94.8% | – | – |
| COc1cc(NC(=O)Nc2nc(-c3ccc(Cl)s3)cs2)cc(OC)c1OC | 60.8% | 0.01% | – | – |
| COc1cc(NC(=O)Nc2nc(-c3cc4ccccc4o3)cs2)cc(OC)c1OC | 76.8% | 45.3% | – | – |
| Cc1ccc(-c2nc(NC(=O)Nc3ccccc3)sc2C)cc1Cl | 65.6% | 41.4% | – | – |
| Cc1ccc(-c2nc(NC(=O)Nc3ccc(Cl)cc3)sc2C)cc1 | 91.8% | 20.6% | – | – |
| COc1cc(NC(=O)Nc2nc3c(OC)ccc(C)c3s2)cc(OC)c1OC | 99.3% | 83.5% | – | – |

The next lines start with the values.

| residual activity [1] | residual activity [2] | pIC50 [3] | inhibition [4] | Structure (SMILES) |
| --- | --- | --- | --- | --- |
| 99.6% | 53.2% | – | – | COc1ccccc1NC(=O)Nc1cc(C(C)(C)C)nn1-c1ccccc1 |
| 91.5% | 95.8% | – | – | Cc1sc(NC(=O)Nc2ccc(Cl)cc2)nc1-c1ccccc1 |
| 73.4% | 1.99% | – | – | Cn1nc(-c2ccc(Cl)cc2)cc1NC(=O)Nc1ccc(OCc2ccccc2)cc1 |
| 36.7% | 5.69% | < 4.00 | – | CCc1cc(=O)[nH]c(-n2nc(-c3ccccc3)cc2NC(=O)Nc2ccc3c(c2)OCO3)n1 |
| 55.2% | 1.88% | 4.86 | – | CCc1cc(=O)[nH]c(-n2nc(-c3ccccc3)cc2NC(=O)Nc2ccc(C(C)(C)C)cc2)n1 |
| 82.3% | 26.8% | – | – | CCc1cc(=O)[nH]c(-n2nc(-c3ccccc3)cc2NC(=O)Nc2cc(OC)cc(OC)c2)n1 |
| 57.5% | 16% | 4.14 | – | COc1cc(NC(=O)Nc2cc(-c3ccccc3)nn2-c2nc(C)cc(=O)[nH]2)cc(OC)c1 |
| 84.7% | 10.3% | – | – | COc1ccc(NC(=O)Nc2nc3c(ccc4ccccc43)s2)cc1 |
| 76.7% | 43.9% | – | – | CCOc1ccc(NC(=O)Nc2nc(-c3ccccc3)c(C)s2)cc1 |
| 97.7% | 95.4% | – | – | COc1ccc(NC(=O)Nc2cc(C)nn2-c2ccc(F)cc2)cc1 |
| 86% | 13.7% | – | – | COc1ccc(NC(=O)Nc2nc(-c3ccccc3)c(C(C)=O)s2)cc1OC |
| 72% | 3% | – | – | Cn1nc(-c2ccccc2)cc1NC(=O)Nc1ccc(OCc2ccccc2)cc1 |
| 93.7% | 103% | – | – | COc1ccc(NC(=O)Nc2cc(C)nn2C2CCCC2)cc1 |
| 98.1% | 103% | – | – | CCc1c(C)nc(-n2nc(C)cc2NC(=O)Nc2cccc(OC)c2)[nH]c1=O |
| 92.9% | 97.3% | – | – | Cn1nc(C(C)(C)C)cc1NC(=O)Nc1ccc(OCc2ccccc2)cc1 |
| 65.6% | 11.8% | – | – | CCc1cc(=O)[nH]c(-n2nc(-c3ccccc3)cc2NC(=O)Nc2ccc(OC)cc2)n1 |
| 64.8% | 31.6% | – | – | Cc1ccc(-c2nc(NC(=O)Nc3ccc(OCc4ccccc4)cc3)sc2C)cc1Cl |
| 96% | 96.4% | – | – | COc1cccc(NC(=O)Nc2cc(C)nn2-c2ccc(F)cc2)c1 |
| 88.9% | 57.5% | – | – | COc1cc(C)ccc1NC(=O)Nc1cn(-c2ccccc2)nc1-c1ccc(OC)c(OC)c1 |
| 57.7% | 3.99% | 4.52 | – | Cc1cc(=O)[nH]c(-n2nc(-c3ccccc3)cc2NC(=O)Nc2ccc3c(c2)OCO3)n1 |
| 86.3% | 13.3% | – | – | O=C(Nc1ccc(OCc2ccccc2)cc1)Nc1cc(-c2ccccc2)nn1-c1ccccc1 |
| 92% | 68.7% | – | – | COc1ccc(NC(=O)Nc2nc(-c3ccc(OC)c(OC)c3)cs2)cc1 |
